Test results taken from a melting point compilation (Tetko et al.; mined from patent text by program, amines drawn as free bases though some values may be those of a salt).

| SMILES | melting point |
| --- | --- |
| CC(C)OC(=O)c1cc(-n2c(=O)[nH]c3c(c2=O)CCC3)c(Cl)cc1Br | 208 to 210 °C |
| Cc1cccc(CO)c1CNc1cc(C(=O)N(C)C)cc2c1nc(C)n2C | 197 to 198 °C |
| CNc1cc(Oc2ccc(Cl)cc2Cn2ccnc2)ccc1[N+](=O)[O-] | 130 °C |
| CC#CCOc1ccc(S(=O)(=O)C2(C(=O)NO)CCN(C(C)C)CC2)cc1 | 105 °C |
| N=C(N)NCCC[C@H](NC(=O)c1ccccc1SSc1ccccc1C(=O)N[C@@H](CCCNC(=N)N)C(=O)O)C(=O)O | 208 to 211 °C |
| CCOC(=O)c1cc2cc(OCCCS(C)(=O)=O)cc(N)c2[nH]1 | 187 to 188 °C |
| Cc1nc(C)c(Cl)c(NCCCSc2ccnc(CNc3nc(C)nc(C)c3Cl)c2C)n1 | 170 to 174 °C |
| Cn1cnnc1C(c1ccc(Cl)cc1)c1ccc2c(c1)c(-c1cccc(Cl)c1)nc1nnnn12 (stereo not given) | 217 °C |
| CC(C)OC(=O)C(C(=O)O)=C1SCCS1 | 104 to 106 °C |
| CCCCCC(=O)C=Cc1ccc(Cl)cc1 | 44 to 47 °C |
| CC(C)[Si](Oc1ccc2c(c1)CCC2=O)(C(C)C)C(C)C | 63 to 63.5 °C |
| O=C1c2ccccc2CCC1CNCC(O)c1cccc(O)c1 (stereo not given) | 140 to 143 °C |
| CCOCCc1cc2c(nc(O)n2CCCCS(C)(=O)=O)c(N)n1 | 203 to 206 °C |
| C/C(=C\c1ccc(C(=O)O)cc1)c1ccc2c(c1)C(C)(C)CCS2(=O)=O | 245 to 247 °C |
| COc1cc(OC)nc(NC(=O)NS(=O)(=O)c2ncccc2C(CF)OC(C)=O)n1 (stereo not given) | 145 to 147 °C |
| COc1cc(Cc2cnc(N)nc2N)cc(OC)c1 | 164 to 168 °C |
| COC(=O)c1cc(N(C)C(C)=O)c(Cl)c(N(C)C(C)=O)c1 | 162 to 164 °C |
| O=Cc1cc(O)c(O)c(C=O)c1CCC(=O)O | 160 to 162 °C |
| COc1ccc(/C=C/c2ccncc2)cc1OC1CCCC1 | 108 °C |
| CCCn1c(=O)c2c(NC)n[nH]c2n(CCOCc2ccccc2)c1=O | 224 to 226 °C |
| CCCCC(=O)Nc1ccccc1C(F)(F)F | 63 °C |
| Clc1ccc2c(c1)C(c1ccccc1Cl)=NCCN2C1=NCCS1 | 123 to 124 °C |
| Cc1cccc(S(=O)(=O)n2c(CCCC(=O)O)cc3nc(Cl)ccc32)c1 | 165 °C |

| SMILES | melting point |
| --- | --- |
| CNc1nc(CO)c(-c2ccncc2)s1 | 216 to 218 °C |
| O=[N+]([O-])c1ccc(Oc2ccc(Cl)c(Cl)c2)nc1 | 101 to 102 °C |
| CC(Oc1ncn(-c2ccc(C(F)(F)F)cc2)n1)C(N)=O (stereo not given) | 178 to 180 °C |
| C=CC(=O)N1CCSC1c1cc(C(C)(C)C)c(O)c(C(C)(C)C)c1 (stereo not given) | 147 to 149 °C |
| O=C1N(Cc2ccc(Cl)s2)c2c(C(F)(F)F)cccc2C12COc1cc3c(cc12)OCO3 (stereo not given) | 165 to 166 °C |
| Cc1c(O)ccc2c1OCC(c1ccc3c(c1)OCO3)C2 (stereo not given) | 130 to 131 °C |
| Nc1cc(N2CCOCC2)ccc1[N+](=O)[O-] | 177 to 178 °C |
| OCCCC(c1ccccc1)C(O)(c1ccccc1)c1ccccc1 (stereo not given) | 120 to 122 °C |
| CSc1ccc2c(c1)C(SCCBr)Cc1ccccc1O2 (stereo not given) | 64 to 66 °C |
| CCCC1=C(C#N)C(c2ccccc2C#N)c2c[nH]nc2N1 (stereo not given) | 218 °C |
| COC(=O)C1CCc2cc(OC)ccc2C1=O (stereo not given) | 82 to 84 °C |
| CCOC(=O)NCSSc1ccc([N+](=O)[O-])cc1C(Cl)(Cl)Cl | 90 to 91 °C |
| CCOc1c(C)cc2c(c1C)C1(C)Cc3ccccc3C1=N2 (stereo not given) | 164 °C |
| C[C@]12CC[C@@H]3c4ccc(O)cc4CC[C@H]3[C@@H]1CCC2=C(F)F | 154 to 156 °C |
| CC(C)(C)OC(=O)N[C@@H](CO)C(=O)NCCO | 74 to 76 °C |
| CN(C)S(=O)(=O)c1ccc(Oc2ccc([N+](=O)[O-])cc2)cc1 | 116 to 118 °C |
| CCOC(=O)NS(=O)(=O)c1c(Cl)c(C)nn1C | 106 to 109 °C |
| CC(C)(C)C(=O)CC(=O)NC1CCCCC1 | 69 to 70 °C |
| Cc1c(Br)c2c(c(C)c1NC(=O)CC(C)(C)C)C(c1ccc(C(C)C)cc1)CS2(=O)=O (stereo not given) | 211 to 213 °C |
| O=S(=O)(c1ccc(Cl)cc1)C(CCl)Sc1ccc(Br)cc1 (stereo not given) | 76 to 78 °C |
| CCOC(=O)c1cc(NC(C)=O)cnc1C(=O)OCC | 108 to 110 °C |
| COC1=C(OC)C(=O)C(CCCCCCCCCCCCCCCCCCCCCC(=O)O)=C(C)C1=O | 86 to 87 °C |
| C=CCN1CCNC1=C[N+](=O)[O-] | 97 to 98 °C |

| SMILES | melting point |
| --- | --- |
| CN(C)CCC(Oc1ccc(N)cc1)c1ccccc1 (stereo not given) | 82 to 84 °C |
| Nc1nc(Cl)nc2ccccc12 | 232 °C |
| CCOC(=O)N1CCC(=C2c3sccc3C=Cn3ccnc32)CC1 | 176 °C |
| Cc1c(-c2ccc(Cl)c(C(=O)N(C)C)c2)sc2nc(N)[nH]c(=O)c12 | 300 to 320 °C |
| CC(=O)OC1CCC2(C)C(=CCC3C2CCC2(C)C(n4ccnn4)=CCC32)C1 (stereo not given) | 158 to 160 °C |
| CN1CC[C@@H](c2c(O)cc(O)c3c(=O)cc(-c4cccs4)oc23)[C@@H]1CO | 218 to 220 °C |
| COC(=O)c1cc(N)cc(C(F)(F)F)n1 | 114 °C |
| CCCCC1(CCCC)CCc2c(OCc3ccccc3C#N)cccc2C1O (stereo not given) | 112 to 113 °C |
| COc1ccc(-c2cc(CN(C)C)c(=O)n(Cc3ccc(F)c(F)c3)n2)cc1F | 130 °C |
| CC1(C)SC2C(NC(=O)CNC(=O)NC(=N)Cc3ccc(Cl)cc3)C(=O)N2C1c1nnn[nH]1 (stereo not given) | 150 to 162 °C |
| Cc1noc(C)c1C(=O)Nc1ccc(-n2nc(C(F)(F)F)cc2C(F)(F)F)cc1 | 179 to 180 °C |
| CCCc1c(O)c(Br)cc(C(C)=O)c1O | 67 °C |
| CCCc1c2c(cc3c(=O)cc(C(=O)O)oc13)CCCC2 | 235 °C |
| CNC(=O)Nc1ccc(F)cc1F | 182 to 183 °C |
| c1ccc(C(c2ccccc2)c2ccncc2)cc1 | 124 to 126 °C |
| CC1CC(C)CN(CCNc2ccnc3cc(Cl)ccc23)C1 (stereo not given) | 142 to 143 °C |
| CN1C(=O)C(CN2CCCCC2)CC1C1CC1c1ccccc1Cl (stereo not given) | 87 to 90 °C |
| Oc1ccc(OCCCCI)cc1 | 51 to 53 °C |
| Cc1ccc(C)c(OCCC(N)C(C)(C)C(=O)O)c1 (stereo not given) | 86.1 to 86.9 °C |
| O=S1OC(c2ccc(F)cc2)C(Cn2cncn2)(c2ccc(Cl)cc2Cl)O1 (stereo not given) | 170 to 171 °C |
| C=Cn1cc(C(=O)OCC)c(=O)c2cc(F)c(Cl)cc21 | 146 to 149 °C |
| CCOC(CC)c1ccc(Cl)c2nc3n(c12)CCCN3c1ccc(Cl)cc1Cl (stereo not given) | 108 to 110 °C |

The next lines start with the values.

| melting point | SMILES |
| --- | --- |
| 134 to 135 °C | COc1ccc(CSc2nnc(-c3ccc4ncsc4c3)o2)cc1 |
| 140 °C | CCOC(=O)C(C(=O)CCC(C)C)C1c2ccccc2C(=O)N1c1ccc2ccc(F)nc2n1 (stereo not given) |
| 47 to 50 °C | CC(C)(C)OC(=O)Nc1cc(OC(C)(C)C)c(-c2ccccc2F)cc1NC(=O)CC(=O)c1cccc(-n2ccnn2)c1 |
| 223 to 224 °C | CC1Cc2c(c3cccnc3n(-c3ccccc3)c2=O)O1 (stereo not given) |
| 87 to 89 °C | CCON=C(C(C)=NOCc1ccccc1C(=COC)C(=O)OC)c1ccc(Oc2ccc(Cl)cc2)cc1 |
| 131 °C | O=C(Cc1ccc(Br)cn1)Nc1ccccn1 |
| 133 to 136 °C | CC(=O)N1CCc2ccc(SCc3ccccc3)c(N)c2C1 |
| 251 to 253 °C | CC(C)(C)c1ccc(C(=O)Nc2cn3cc(-c4cnco4)ccc3n2)cn1 |
| 239 to 241 °C | CC(C)(O)c1ccc(-c2cnc3c(n2)N(CCN2CCOCC2)CC(=O)N3)cn1 |
| 145 to 147 °C | O=C(O)C=CC(=O)c1ccc(Oc2ccccc2Cl)cc1 |
| 111 °C | COc1cc(CCCN(C)Cc2ccc(OC)c(OC)c2)ccc1NC(=O)c1cccc2c(=O)c3cccc(C)c3[nH]c12 |
| 158 to 162 °C | CCn1cc(C(=O)NCc2ccc(Cl)cc2)c(=O)c2cc(C#CCCO)sc21 |
| 84 to 86 °C | COC(=O)[C@H](Cc1ccccc1)NC(=S)Cc1ccc(C)cc1 |
| 215 to 217 °C | O=C(O)c1ccc(NC(=O)c2ccccc2-c2ccccc2)nc1 |
| 120 to 121 °C | COC(=O)C(=O)c1ccc(OCC(=O)c2ccc3ccccc3c2)cc1 |
| 92 °C | COc1ccc(-c2nc3cc(OC)cc(-c4ccccc4)c3o2)cc1 |

| melting point | SMILES |
| --- | --- |
| 175 to 176 °C | CN(C)C(=O)NCc1cccc(-c2nc(=O)c3ccccc3s2)n1 |
| 107 to 113 °C | COC(=O)C1=CN(CCCc2ccccc2)C=C(C(=O)OC)C1c1ccc(OC)c(OC)c1 |
| 264 to 265 °C | CC(C)(C)OC(=O)N1CCC(Nc2ccc3nc(NC(=O)c4ccc(C(C)(C)C)cc4)cn3n2)C1 (stereo not given) |
| 170 to 171 °C | CCc1cnc(N2CCN(C(=O)c3ccc(CNc4ncnc5ccccc45)cc3)CC2)nc1 |
| 188 to 191 °C | COC(=O)COc1c(-c2ccccc2)c(=O)[nH]c2cc(Cl)ccc12 |
| 114 to 118 °C | CCOc1nn(Cc2ccc(Cl)cc2Cl)cc1CCCOc1nn(-c2ccccc2)cc1CCC(=O)O |
| 128 °C | Cc1ccc2c(c1)cc(CCCC(=O)O)n2S(=O)(=O)c1ccc2ncsc2c1 |
| 108 to 110 °C | COc1cccc(CNC(=O)c2ccc(CCl)cc2)c1 |
| 160 °C | CC(C)(C)OC(=O)[C@H]1C[C@H](C(=O)Nc2ccccc2)[C@@H](c2ccccc2)N1C(=O)CNC(=O)Nc1cccc(C(=O)O)c1 (racemic) |
| 80 to 85 °C | O=C(O)C(CCc1ccccc1)CC1(C(=O)Nc2cccnc2)CCCC1 (stereo not given) |
| 143 to 144 °C | COc1cccc([C@H]2O[C@H](CC(=O)NCc3ccc(C(=O)O)cc3)C(=O)N(CC(C)(C)CO)c3ccc(Cl)cc32)c1OC |
| 193 to 195 °C | Cc1cc(S(=O)(=O)N2c3ccc(Br)cc3-c3ccccc3C2C)ccc1O (stereo not given) |
| 269 °C | CC(C)(CO)NS(=O)(=O)c1cccc(NC(=O)c2cnn3c(C(F)(F)F)cc(-c4ccc(Cl)c(Cl)c4)nc23)c1 |
| 288 to 290 °C | CCOC(=O)c1ccc(-c2cc3c(N[C@H](C)c4ccccc4)ncnc3[nH]2)cc1 |
| 151 to 153 °C | Cc1cc(Cl)ccc1Oc1ccc(NC(=O)N2CCc3ccccc3CC2)cn1 |
| 188 to 189 °C | COC(=O)COc1c(Br)cc(-c2c3ccccc3c(Br)c3oc4ccccc4c23)cc1Br |
